Assay results published in patent US20060263802A1 (priority 2003, published 2006).

Experiments:
Assay type in all cases: binding
[1] = tested on: human monoclonal antibody CRJA
[2] = tested on: human monoclonal antibody CRJB
[3] = tested on: human monoclonal antibody CR57
[4] = tested on: human monoclonal antibody CRJA; remark: listed apart in the source
[5] = tested on: human monoclonal antibody CRJB; remark: listed apart in the source
[6] = tested on: human monoclonal antibody CR57; remark: listed apart in the source

Sequence	Binding of CRJA to linear peptide (PEPSCAN-ELISA signal) [1]	Binding of CRJB to linear peptide (PEPSCAN-ELISA signal) [2]	Binding of CR57 (10 μg/ml) to looped/cyclic peptide (PEPSCAN-ELISA) [3]	Binding of CRJA (10 μg/ml) to looped/cyclic peptide (PEPSCAN-ELISA) [4]	Binding of CRJB (10 μg/ml) to looped/cyclic peptide (PEPSCAN-ELISA) [5]	Binding of CR57 to linear peptide (PEPSCAN-ELISA signal) [6]	Binding of CR57 (10 μg/ml) to looped/cyclic peptide (PEPSCAN-ELISA signal) [3]	Binding of CRJA (10 μg/ml) to looped/cyclic peptide (PEPSCAN-ELISA signal) [4]	Binding of CRJB (10 μg/ml) to looped/cyclic peptide (PEPSCAN-ELISA signal) [5]	Binding of human monoclonal antibody CRJA to linear peptide (PEPSCAN-ELISA signal) [1]	Binding of human monoclonal antibody CRJB to linear peptide (PEPSCAN-ELISA signal) [2]	Binding of CR57 to looped/cyclic peptide (PEPSCAN-ELISA signal) [3]	Binding of CRJA to looped/cyclic peptide (PEPSCAN-ELISA signal) [4]	Binding of CRJB to looped/cyclic peptide (PEPSCAN-ELISA signal) [5]	Binding of human monoclonal antibody CR57 to linear peptide (PEPSCAN-ELISA signal) [6]	binding of antibody CR57 to linear peptide (PEPSCAN OD) [6]
LSHLRKLVPGFGKAY	93	139	121	93	123	96										
FTNSRGKRASKGSET	90	111				83	89	88	82							
VIISPSVADLDPYDR	47	98				59	90	100	82							
NGVFFNGIILGPDGN	62	117	58	46	85	66										
EVHLPDVHNQVSGVD										104	150	125	103	107	91	
VHLPDVHNQVSGVDL										104	114	105	92	94	110	
VPGFGKAYTIFNKTL	96	114	74	87	42	58										
KSVRTWNEILPSKGC	90	125	148	110	104	115										
VFPSGKCSGVAVSST	68	114				74	79	55	75							
PPDQLVNLHDFRSDE	118	120	101	97	83	107										
WLRTVKTTKESLVII	85	104				41	55	78	78							
HHLSCPNNLVVEDEG	72	76				56	66	96	58							
ILGPDGNVLIPEMQS	90	134	143	100	92	125										
LHSRVFPSGKCSGVA	134	114				78	110	117	111							
AENYTNFVGYVTTTF	74	106				66	58	46	68							
FFNGIILGPDGNVLI	119	143	72	100	96	92										
LRKLVPGFGKAYTIF	116	118	92	87	105	83										
ADPSTVFKDGDEAED										101	152	118	101	72	147	
SSLLQQHMELLESSV	106	128	98	90	76	90										
VDERGLYKSLKGACK	82	108	105	96	80	50										
KTLMEADAHYKSVRT	102	98	125	92	97	91										
NPRLGMSCDIFTNSR	82	113				90	78	91	101							
NWKMAGDPRYEESLH	69	101				58	94	93	78							
SGKCSGVAVSSTYCS	65	121				64	77	85	57							
NFVGYVTTTFKRKHF	88	107				65	92	83	98							
KLKLCGVLGLRLMDG	101	120	13	79	63	273										bound
CRAAYNWKMAGDPRY	113	118				87	107	111	68							
WCPPDQLVNLHDFRS	114	119	105	111	106	101										
LDPYDRSLHSRVFPS	113	142				99	88	98	83							
